# Reference: PubChem BioAssay (NCI)
#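 The compound was tested at five concentrations on cells cultured in 96-well plates, with a 48-hour exposure period. GI50: concentration for 50% inhibition of growth. At the TGI there is no net growth.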
# Assays:
# Test in all cases: NCI anticancer screen, dose series, 48 h
# 786-0 renal = test system: 786-0 renal
# A498 renal = test system: A498 renal
# A549 NSCLC = test system: A549 NSCLC
# ACHN renal = test system: ACHN renal
# BT-549 breast = test system: BT-549 breast
# CAKI-1 renal = test system: CAKI-1 renal
# COLO 205 colon = test system: COLO 205 colon
# DU-145 prostate = test system: DU-145 prostate
# EKVX NSCLC = test system: EKVX NSCLC
# HCC-2998 colon = test system: HCC-2998 colon
# HCT-116 colon = test system: HCT-116 colon
# HCT-15 colon = test system: HCT-15 colon
# HL-60(TB) leukemia = test system: HL-60(TB) leukemia
# HOP-62 NSCLC = test system: HOP-62 NSCLC
# HOP-92 NSCLC = test system: HOP-92 NSCLC
# HS 578T breast = test system: HS 578T breast
# IGROV1 ovarian = test system: IGROV1 ovarian
# K-562 leukemia = test system: K-562 leukemia
# LOX IMVI melanoma = test system: LOX IMVI melanoma
# M14 melanoma = test system: M14 melanoma
# MALME-3M melanoma = test system: MALME-3M melanoma
# MCF7 breast = test system: MCF7 breast
# MDA-MB-231 breast = test system: MDA-MB-231 breast
# MDA-MB-435 = test system: MDA-MB-435
# MDA-MB-468 breast = test system: MDA-MB-468 breast
# MOLT-4 leukemia = test system: MOLT-4 leukemia
# NCI-H226 lung = test system: NCI-H226 lung
# NCI-H23 lung = test system: NCI-H23 lung
# NCI-H460 lung = test system: NCI-H460 lung
# NCI-H522 lung = test system: NCI-H522 lung
# NCI/ADR-RES ovarian = test system: NCI/ADR-RES ovarian
# OVCAR-5 ovarian = test system: OVCAR-5 ovarian
# OVCAR-8 ovarian = test system: OVCAR-8 ovarian
# PC-3 prostate = test system: PC-3 prostate
# RPMI-8226 leukemia = test system: RPMI-8226 leukemia
# RXF 393 renal = test system: RXF 393 renal
# SF-268 CNS = test system: SF-268 CNS
# SF-295 CNS = test system: SF-295 CNS
# SF-539 CNS = test system: SF-539 CNS
# SK-MEL-2 melanoma = test system: SK-MEL-2 melanoma
# SK-MEL-28 melanoma = test system: SK-MEL-28 melanoma
# SK-MEL-5 melanoma = test system: SK-MEL-5 melanoma
# SK-OV-3 ovarian = test system: SK-OV-3 ovarian
# SN12C renal = test system: SN12C renal
# SNB-19 CNS = test system: SNB-19 CNS
# SNB-75 CNS = test system: SNB-75 CNS
# SW-620 colon = test system: SW-620 colon
# TK-10 renal = test system: TK-10 renal
# U251 CNS = test system: U251 CNS
# UACC-257 melanoma = test system: UACC-257 melanoma
# UACC-62 melanoma = test system: UACC-62 melanoma
# UO-31 renal = test system: UO-31 renal
smiles,measurement,setting,value
O=C(NN1C(=O)/C(=C/C=C/c2ccc([N+](=O)[O-])o2)SC1=S)c1cccc(O)c1,GI50,786-0 renal,1620 nM
same,TGI,786-0 renal,3020 nM
same,GI50,A498 renal,19700 nM
same,TGI,A498 renal,33800 nM
same,GI50,A549 NSCLC,2920 nM
same,TGI,A549 NSCLC,11600 nM
same,GI50,ACHN renal,1640 nM
same,TGI,ACHN renal,3000 nM
same,GI50,BT-549 breast,492 nM
same,TGI,BT-549 breast,1790 nM
same,GI50,CAKI-1 renal,1570 nM
same,TGI,CAKI-1 renal,2920 nM
same,GI50,COLO 205 colon,1600 nM
same,TGI,COLO 205 colon,3080 nM
same,GI50,DU-145 prostate,2120 nM
same,TGI,DU-145 prostate,4480 nM
same,GI50,EKVX NSCLC,1490 nM
same,TGI,EKVX NSCLC,2900 nM
same,GI50,HCC-2998 colon,1740 nM
same,TGI,HCC-2998 colon,3150 nM
same,GI50,HCT-116 colon,233 nM
same,TGI,HCT-116 colon,630 nM
same,GI50,HCT-15 colon,167 nM
same,TGI,HCT-15 colon,371 nM
same,GI50,HL-60(TB) leukemia,2120 nM
same,TGI,HL-60(TB) leukemia,5490 nM
same,GI50,HOP-62 NSCLC,1730 nM
same,TGI,HOP-62 NSCLC,3190 nM
same,GI50,HOP-92 NSCLC,1230 nM
same,TGI,HOP-92 NSCLC,2820 nM
same,GI50,HS 578T breast,2130 nM
same,TGI,HS 578T breast,7700 nM
same,GI50,IGROV1 ovarian,1390 nM
same,TGI,IGROV1 ovarian,2690 nM
same,GI50,K-562 leukemia,222 nM
same,TGI,K-562 leukemia,1100 nM
same,GI50,LOX IMVI melanoma,167 nM
same,TGI,LOX IMVI melanoma,323 nM
same,GI50,M14 melanoma,282 nM
same,TGI,M14 melanoma,921 nM
same,GI50,MALME-3M melanoma,205 nM
same,TGI,MALME-3M melanoma,447 nM
same,GI50,MCF7 breast,1240 nM
same,TGI,MCF7 breast,2960 nM
same,GI50,MDA-MB-231 breast,253 nM
same,TGI,MDA-MB-231 breast,737 nM
same,GI50,MDA-MB-435,675 nM
same,TGI,MDA-MB-435,2110 nM
same,GI50,MDA-MB-468 breast,1710 nM
same,TGI,MDA-MB-468 breast,3400 nM
same,GI50,MOLT-4 leukemia,295 nM
same,TGI,MOLT-4 leukemia,1280 nM
same,GI50,NCI-H226 lung,393 nM
same,TGI,NCI-H226 lung,1580 nM
same,GI50,NCI-H23 lung,1010 nM
same,TGI,NCI-H23 lung,2260 nM
same,GI50,NCI-H460 lung,1630 nM
same,TGI,NCI-H460 lung,3710 nM
same,GI50,NCI-H522 lung,185 nM
same,TGI,NCI-H522 lung,367 nM
same,GI50,NCI/ADR-RES ovarian,1960 nM
same,TGI,NCI/ADR-RES ovarian,4630 nM
same,GI50,OVCAR-5 ovarian,1850 nM
same,TGI,OVCAR-5 ovarian,3380 nM
same,GI50,OVCAR-8 ovarian,571 nM
same,TGI,OVCAR-8 ovarian,2540 nM
same,GI50,PC-3 prostate,1880 nM
same,TGI,PC-3 prostate,4180 nM
same,GI50,RPMI-8226 leukemia,387 nM
same,TGI,RPMI-8226 leukemia,2190 nM
same,GI50,RXF 393 renal,1250 nM
same,TGI,RXF 393 renal,2520 nM
same,GI50,SF-268 CNS,1950 nM
same,TGI,SF-268 CNS,4810 nM
same,GI50,SF-295 CNS,2120 nM
same,TGI,SF-295 CNS,5010 nM
same,GI50,SF-539 CNS,1580 nM
same,TGI,SF-539 CNS,2950 nM
same,GI50,SK-MEL-2 melanoma,1070 nM
same,TGI,SK-MEL-2 melanoma,2440 nM
same,GI50,SK-MEL-28 melanoma,1660 nM
same,TGI,SK-MEL-28 melanoma,3030 nM
same,GI50,SK-MEL-5 melanoma,662 nM
same,TGI,SK-MEL-5 melanoma,1950 nM
same,GI50,SK-OV-3 ovarian,1910 nM
same,TGI,SK-OV-3 ovarian,4310 nM
same,GI50,SN12C renal,256 nM
same,TGI,SN12C renal,1150 nM
same,GI50,SNB-19 CNS,1810 nM
same,TGI,SNB-19 CNS,3560 nM
same,GI50,SNB-75 CNS,1280 nM
same,TGI,SNB-75 CNS,5870 nM
same,GI50,SW-620 colon,209 nM
same,TGI,SW-620 colon,485 nM
same,GI50,TK-10 renal,1780 nM
same,TGI,TK-10 renal,3490 nM
same,GI50,U251 CNS,1390 nM
same,TGI,U251 CNS,2890 nM
same,GI50,UACC-257 melanoma,1740 nM
same,TGI,UACC-257 melanoma,3540 nM
same,GI50,UACC-62 melanoma,587 nM
same,TGI,UACC-62 melanoma,1930 nM
same,GI50,UO-31 renal,1410 nM
same,TGI,UO-31 renal,2720 nM
